Target: T1, active p38 alpha enzyme (Upstate Biotechnology) (Homo sapiens, UniProt Q16539)
T1 construct: purchased Upstate Biotechnology
Assay: p38α biochemical assay (ATP turnover, luminescent detection, Cambrex PKlight)
Conditions: p38α kinase; Table 1 Biological Activity
Summary of the method: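 Active p38α phosphorylates MapkapK2 whole protein with 1.4 uM final ATP, 2 h at 30C, in Tris/MOPS buffer with MgCl2, CaCl2, EGTA, EDTA, glycerol, β-mercaptoethanol and 1 mg/ml BSA. Compounds pin-delivered from DMSO; total ATP turnover read by luminescence after PKlight addition.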

T1 sequence (Q16539 whole entry): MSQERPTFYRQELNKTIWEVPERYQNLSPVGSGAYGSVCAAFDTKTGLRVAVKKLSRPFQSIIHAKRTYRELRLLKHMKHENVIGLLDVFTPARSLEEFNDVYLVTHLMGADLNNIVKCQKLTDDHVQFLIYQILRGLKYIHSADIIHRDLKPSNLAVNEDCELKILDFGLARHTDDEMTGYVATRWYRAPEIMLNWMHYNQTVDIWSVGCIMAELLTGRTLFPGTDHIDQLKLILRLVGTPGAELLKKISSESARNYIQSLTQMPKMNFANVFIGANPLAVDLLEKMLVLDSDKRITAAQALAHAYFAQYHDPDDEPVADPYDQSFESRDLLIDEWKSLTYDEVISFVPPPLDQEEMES

Row | Structure (SMILES) | IC50 [nM]
1 | Cc1nc(-c2ccc(F)cc2)c(-c2nc(C(=O)N3CCSCC3)cs2)s1 [Example 1854] | > 1000
2 | Cc1nc(-c2ccc(F)cc2)c(-c2nc(C(=O)N3CC(C)CC(C)C3)cs2)s1 (stereo not drawn) [Example 1856] | > 1000
3 | Cc1nc(-c2ccc(F)cc2)c(-c2nc(C(=O)N(C)C3CCCCC3)cs2)s1 [Example 1857] | > 1000
4 | Cc1nc(-c2ccc(F)cc2)c(-c2nc(C(=O)N3C(C)CCCC3C)cs2)s1 (stereo not drawn) [Example 1858] | > 1000
5 | Cc1nc(-c2ccc(F)cc2)c(-c2nc(C(=O)N3CCC(N(C)C)C3)cs2)s1 (stereo not drawn) [Example 1859] | > 1000
6 | Cc1nc(-c2ccc(F)cc2)c(-c2nc(C(=O)N3CC(C)NC(C)C3)cs2)s1 (stereo not drawn) [Example 1860] | > 1000
7 | COC[C@@H]1CCCN1C(=O)c1csc(-c2sc(C)nc2-c2ccc(F)cc2)n1 [Example 1862] | ≤ 1000
8 | Cc1nc(-c2ccc(F)cc2)c(-c2nc(C(=O)N3CC(C)OC(C)C3)cs2)s1 (stereo not drawn) [Example 1863] | > 1000
9 | Cc1nc(-c2ccc(F)cc2)c(-c2nc(C(=O)N3CCC(C(N)=O)CC3)cs2)s1 [Example 1869] | > 1000
10 | CC(=O)N[C@H]1CCN(C(=O)c2csc(-c3sc(C)nc3-c3ccc(F)cc3)n2)C1 [Example 1870] | > 1000
11 | Cc1nc(-c2ccc(F)cc2)c(-c2nc(C(=O)N3CCCC(C(N)=O)C3)cs2)s1 (stereo not drawn) [Example 1872] | > 1000
12 | Cc1nc(-c2ccc(F)cc2)c(-c2nc(C(=O)N3CCCC4CCCCC43)cs2)s1 (stereo not drawn) [Example 1880] | ≤ 1000
13 | COC(=O)C1CCN(C(=O)c2csc(-c3sc(C)nc3-c3ccc(F)cc3)n2)CC1 [Example 1882] | > 1000
14 | Cc1nc(-c2ccc(F)cc2)c(-c2nc(C(=O)N3CCC(O)(O)CC3)cs2)s1 [Example 1886] | > 1000
15 | CCOC(=O)C1CCN(C(=O)c2csc(-c3sc(C)nc3-c3ccc(F)cc3)n2)CC1 [Example 1887] | > 1000
16 | CCOC(=O)C1CCCN(C(=O)c2csc(-c3sc(C)nc3-c3ccc(F)cc3)n2)C1 (stereo not drawn) [Example 1888] | > 1000
17 | CCOC(=O)N1CCN(C(=O)c2csc(-c3sc(C)nc3-c3ccc(F)cc3)n2)CC1 [Example 1889] | > 1000
18 | Cc1nc(-c2ccc(F)cc2)c(-c2nc(C(=O)N3CCN(C4CCCCC4)CC3)cs2)s1 [Example 1898] | > 1000
19 | Cc1nc(-c2ccc(F)cc2)c(-c2nc(C(=O)N3CCN(c4ccc(O)cc4)CC3)cs2)s1 [Example 1902] | > 1000
20 | Cc1nc(-c2ccc(F)cc2)c(-c2nc(C(=O)N3CCN(c4ccc(F)cc4)CC3)cs2)s1 [Example 1905] | > 1000

Row | Structure (SMILES) | IC50 [nM]
21 | Cc1nc(-c2ccc(F)cc2)c(-c2nc(C(=O)N3CCN(CC4CCCCC4)CC3)cs2)s1 [Example 1906] | > 1000
22 | CCOC(=O)CC1C(=O)NCCN1C(=O)c1csc(-c2sc(C)nc2-c2ccc(F)cc2)n1 (stereo not drawn) [Example 1908] | ≤ 1000
23 | Cc1nc(-c2ccc(F)cc2)c(-c2nc(C(=O)N3CCN(C(=O)OC(C)(C)C)CC3)cs2)s1 [Example 1909] | > 1000
24 | Cc1nc(-c2ccc(F)cc2)c(-c2nc(C(=O)N3CCC(NC(=O)OC(C)(C)C)C3)cs2)s1 (stereo not drawn) [Example 1910] | > 1000
25 | Cc1nc(-c2ccc(F)cc2)c(-c2nc(C(=O)N3CCN(c4ccc(C#N)cn4)CC3)cs2)s1 [Example 1912] | > 1000
26 | Cc1nc(-c2ccc(F)cc2)c(-c2nc(C(=O)N3CCN(c4cccc(C)c4C)CC3)cs2)s1 [Example 1913] | > 1000
27 | Cc1cccc(N2CCN(C(=O)c3csc(-c4sc(C)nc4-c4ccc(F)cc4)n3)CC2C)c1 (stereo not drawn) [Example 1915] | ≤ 1000
28 | Cc1nc(-c2ccc(F)cc2)c(-c2nc(C(=O)N3CCN(c4ccc(C)c(C)c4)CC3)cs2)s1 [Example 1917] | > 1000
29 | Cc1ccc(N2CCN(C(=O)c3csc(-c4sc(C)nc4-c4ccc(F)cc4)n3)CC2)c(C)c1 [Example 1918] | > 1000
30 | Cc1ccc(C)c(N2CCN(C(=O)c3csc(-c4sc(C)nc4-c4ccc(F)cc4)n3)CC2)c1 [Example 1919] | > 1000
31 | COc1ccc(N2CCN(C(=O)c3csc(-c4sc(C)nc4-c4ccc(F)cc4)n3)CC2)cc1 [Example 1920] | > 1000
32 | COc1cccc(N2CCN(C(=O)c3csc(-c4sc(C)nc4-c4ccc(F)cc4)n3)CC2)c1 [Example 1922] | > 1000
33 | Cc1nc(-c2ccc(F)cc2)c(-c2nc(C(=O)N3CCN(c4cccc(Cl)c4)CC3)cs2)s1 [Example 1924] | > 1000
34 | Cc1nc(-c2ccc(F)cc2)c(-c2nc(C(=O)N3CCN(c4ccc(Cl)cc4)CC3)cs2)s1 [Example 1925] | > 1000
35 | Cc1nc(-c2ccc(F)cc2)c(-c2nc(C(=O)N3CCN(c4ccc(F)cc4F)CC3)cs2)s1 [Example 1927] | > 1000
36 | Cc1nc(-c2ccc(F)cc2)c(-c2nc(C(=O)N3CCN(CCN4CCOCC4)CC3)cs2)s1 [Example 1929] | > 1000
37 | Cc1nc(-c2ccc(F)cc2)c(-c2nc(C(=O)N3CCC(N(C)C(=O)OC(C)(C)C)C3)cs2)s1 (stereo not drawn) [Example 1930] | > 1000
38 | CC(=O)c1ccc(N2CCN(C(=O)c3csc(-c4sc(C)nc4-c4ccc(F)cc4)n3)CC2)cc1 [Example 1931] | > 1000
39 | Cc1nc(-c2ccc(F)cc2)c(-c2nc(C(=O)N3CCN(c4ccc([N+](=O)[O-])cc4)CC3)cs2)s1 [Example 1933] | > 1000

Other lines, results leading:

Row | IC50 [nM] | Structure (SMILES)
40 | > 1000 | Cc1nc(-c2ccc(F)cc2)c(-c2nc(C(=O)N(CCO)CCO)cs2)s1 [Example 1855]
41 | > 1000 | Cc1nc(-c2ccc(F)cc2)c(-c2nc(C(=O)N3CCCC(CO)C3)cs2)s1 (stereo not drawn) [Example 1861]
42 | > 1000 | Cc1nc(-c2ccc(F)cc2)c(-c2nc(C(=O)N3CCCCC3CO)cs2)s1 (stereo not drawn) [Example 1864]
43 | > 1000 | CCN(CCCCO)C(=O)c1csc(-c2sc(C)nc2-c2ccc(F)cc2)n1 [Example 1865]
44 | > 1000 | Cc1nc(-c2ccc(F)cc2)c(-c2nc(C(=O)N3Cc4ccccc4C3)cs2)s1 [Example 1866]
45 | > 1000 | Cc1nc(-c2ccc(F)cc2)c(-c2nc(C(=O)N(C)Cc3ccccc3)cs2)s1 [Example 1867]
46 | > 1000 | CCN(C(=O)c1csc(-c2sc(C)nc2-c2ccc(F)cc2)n1)C1CCCCC1 [Example 1868]
47 | > 1000 | Cc1nc(-c2ccc(F)cc2)c(-c2nc(C(=O)N3CCCCC3CCO)cs2)s1 (stereo not drawn) [Example 1873]
48 | > 1000 | Cc1nc(-c2ccc(F)cc2)c(-c2nc(C(=O)N3CCc4ccccc4C3)cs2)s1 [Example 1874]
49 | > 1000 | CCN(Cc1ccccc1)C(=O)c1csc(-c2sc(C)nc2-c2ccc(F)cc2)n1 [Example 1875]
50 | > 1000 | Cc1nc(-c2ccc(F)cc2)c(-c2nc(C(=O)N(C)CCc3ccccc3)cs2)s1 [Example 1877]
51 | > 1000 | Cc1nc(-c2ccc(F)cc2)c(-c2nc(C(=O)N(C)CCc3ccccn3)cs2)s1 [Example 1878]
52 | > 1000 | C=CCN(C(=O)c1csc(-c2sc(C)nc2-c2ccc(F)cc2)n1)C1CCCCC1 [Example 1881]
53 | > 1000 | Cc1nc(-c2ccc(F)cc2)c(-c2nc(C(=O)N(Cc3ccccc3)C(C)C)cs2)s1 [Example 1883]
54 | > 1000 | Cc1nc(-c2ccc(F)cc2)c(-c2nc(C(=O)N(CCO)Cc3ccccc3)cs2)s1 [Example 1884]
55 | > 1000 | Cc1nc(-c2ccc(F)cc2)c(-c2nc(C(=O)N(C)CC(O)c3ccccc3)cs2)s1 (stereo not drawn) [Example 1885]
56 | > 1000 | Cc1nc(-c2ccc(F)cc2)c(-c2nc(C(=O)N(CCC#N)Cc3cccnc3)cs2)s1 [Example 1891]
57 | > 1000 | Cc1nc(-c2ccc(F)cc2)c(-c2nc(C(=O)N3CCN(c4ccccc4)CC3)cs2)s1 [Example 1892]

Row | IC50 [nM] | Structure (SMILES)
58 | > 1000 | Cc1nc(-c2ccc(F)cc2)c(-c2nc(C(=O)N3CCN(c4ccccn4)CC3)cs2)s1 [Example 1893]
59 | > 1000 | CCCCN(Cc1ccccc1)C(=O)c1csc(-c2sc(C)nc2-c2ccc(F)cc2)n1 [Example 1894]
60 | > 1000 | Cc1nc(-c2ccc(F)cc2)c(-c2nc(C(=O)N(CCO)[C@H](C)c3ccccc3)cs2)s1 [Example 1895]
61 | > 1000 | Cc1nc(-c2ccc(F)cc2)c(-c2nc(C(=O)N(CCCO)Cc3ccccn3)cs2)s1 [Example 1896]
62 | > 1000 | Cc1nc(-c2ccc(F)cc2)c(-c2nc(C(=O)N(C)CC(O)c3ccc(O)cc3)cs2)s1 (stereo not drawn) [Example 1897]
63 | > 1000 | Cc1nc(-c2ccc(F)cc2)c(-c2nc(C(=O)N3CCC(Cc4ccccc4)CC3)cs2)s1 [Example 1899]
64 | > 1000 | Cc1nc(-c2ccc(F)cc2)c(-c2nc(C(=O)N3CCN(Cc4ccccc4)CC3)cs2)s1 [Example 1900]
65 | > 1000 | Cc1nc(-c2ccc(F)cc2)c(-c2nc(C(=O)N3CCCN(Cc4ccccc4)CC3)cs2)s1 [Example 1901]
66 | > 1000 | Cc1nc(-c2ccc(F)cc2)c(-c2nc(C(=O)N(CCN(C)C)Cc3ccccc3)cs2)s1 [Example 1903]
67 | > 1000 | Cc1nc(-c2ccc(F)cc2)c(-c2nc(C(=O)N3CCN(c4ccccc4F)CC3)cs2)s1 [Example 1904]
68 | > 1000 | Cc1nc(-c2ccc(F)cc2)c(-c2nc(C(=O)N(C)C[C@H](O)c3ccc(O)c(O)c3)cs2)s1 [Example 1907]
69 | ≤ 1000 | Cc1nc(-c2ccc(F)cc2)c(-c2nc(C(=O)N3CCN(c4ccccc4C#N)CC3)cs2)s1 [Example 1911]
70 | > 1000 | Cc1nc(-c2ccc(F)cc2)c(-c2nc(C(=O)N3CCN(CCc4ccccc4)CC3)cs2)s1 [Example 1916]
71 | > 1000 | COc1ccccc1N1CCN(C(=O)c2csc(-c3sc(C)nc3-c3ccc(F)cc3)n2)CC1 [Example 1921]
72 | > 1000 | COc1ccc(CCN(C)C(=O)c2csc(-c3sc(C)nc3-c3ccc(F)cc3)n2)cc1OC [Example 1923]
73 | > 1000 | Cc1nc(-c2ccc(F)cc2)c(-c2nc(C(=O)N(Cc3cccnc3)Cc3cccnc3)cs2)s1 [Example 1928]
74 | > 1000 | CCN(CC)CCN(Cc1ccccc1)C(=O)c1csc(-c2sc(C)nc2-c2ccc(F)cc2)n1 [Example 1932]
75 | > 1000 | Cc1nc(-c2ccc(F)cc2)c(-c2nc(C(=O)N(C)Cc3cccc4ccccc34)cs2)s1 [Example 1934]
